Results as given in US5292901A, “Benzodioxole derivatives” (Eisai Co., Ltd., priority 1987, dated 1994).

How the values were obtained:
[1] = tested on: liver injury induced by D-galactosamine; assay: Experimental Example 2b: inhibition of liver injury in rats (group I-b), method given as that of Experimental Example 1b; format: in vivo, male Fischer (F344) rats; details: Rattus norvegicus, 48 h; Table 2b; compound 100 mg/kg oral in 0.5% methylcellulose; read-out: Inhibition ratio (%) GPT
Experimental: The test was conducted in the same manner as shown in Experimental Example 1b except that the test compound was orally administered to the rats in a dose of 100 mg/kg in 0.5% methylcellulose solution.

[2] = tested on: liver injury induced by D-galactosamine; assay: Experimental Example 1b: effect on liver injury induced by D-galactosamine in rats (group I-b); format: in vivo, male Fischer (F344) rats; details: Rattus norvegicus, po, 48 h, Table 1b, D-galactosamine 400 mg/kg, compound 100 mg/kg in 0.5% methylcellulose
[3] = Study of plants used as folk medicines for liver trouble remedies; details: in words
[4] = read-out: Inhibition ratio (%) GPT
[5] = read-out: Inhibition ratio (%) HPT

Row | SMILES | inhibition in vivo at 100 mg/kg [1] [%] | inhibition in vivo at 100 mg/kg [2, 4] [%] | inhibition in vivo at 100 mg/kg [2, 5] [%] | effect as liver trouble remedy [3]
1 | CS(=O)(=O)CCc1ccc2c(c1)OCO2 [Compound 28] | 97 | 95 | 98 | –
2 | O=C(O)CCSCCc1ccc2c(c1)OCO2 [Compound 9] | 98 | 100 | 99 | –
3 | NC(=O)CCSCCc1ccc2c(c1)OCO2 [Compound 17] | 98 | 97 | 99 | –
4 | O=C(O)CCCSCCc1ccc2c(c1)OCO2 [Compound 10] | 43 | 89 | 99 | –
5 | CC(CC(=O)O)SCCc1ccc2c(c1)OCO2 (centres unmarked) [Compound 13] | 86 | 99 | 99 | –
6 | OCCCSCCc1ccc2c(c1)OCO2 [Compound 4] | 93 | 98 | 98 | –
7 | C[S+]([O-])CCc1ccc2c(c1)OCO2 (centres unmarked) [Compound 26] | 97 | 100 | 100 | –
8 | OC1OCC(Cc2ccc3c(c2)OCO3)C1Cc1ccc2c(c1)OCO2 (centres unmarked) [cubebin] | – | – | – | effective as liver trouble remedies
9 | OCCSSSCc1ccccc1 [2-[(phenylmethyl)trithio]ethanol] | – | – | – | effective as liver trouble remedies
